How the values were obtained:
SW1990 = assay: cells; set-up: MTT proliferation assay, sigmoidal dose-response fit, colon and pancreatic cancer cell lines; settings: Homo sapiens, SW1990; 48 h MTT
MiaPaCa-2 = assay: cells; set-up: MTT proliferation assay, sigmoidal dose-response fit, colon and pancreatic cancer cell lines; settings: Homo sapiens, MIA PaCa-2; 48 h MTT
HT-29 = assay: cells; set-up: MTT proliferation assay, sigmoidal dose-response fit, colon and pancreatic cancer cell lines; settings: Homo sapiens, HT-29; 48 h MTT
DLD-1 = assay: cells; set-up: MTT proliferation assay, sigmoidal dose-response fit, colon and pancreatic cancer cell lines; settings: Homo sapiens, DLD-1; 48 h MTT
[1] = molecular target: T1, Doublecortin-like kinase 1 (DCLK1) (Homo sapiens, UniProt O15075); assay: in vitro kinase assay (Kinase-Glo luminescence) with purified active DCLK1, autocamtide II substrate and […] ATP; format: biochemical
T1 sequence (O15075 1-740): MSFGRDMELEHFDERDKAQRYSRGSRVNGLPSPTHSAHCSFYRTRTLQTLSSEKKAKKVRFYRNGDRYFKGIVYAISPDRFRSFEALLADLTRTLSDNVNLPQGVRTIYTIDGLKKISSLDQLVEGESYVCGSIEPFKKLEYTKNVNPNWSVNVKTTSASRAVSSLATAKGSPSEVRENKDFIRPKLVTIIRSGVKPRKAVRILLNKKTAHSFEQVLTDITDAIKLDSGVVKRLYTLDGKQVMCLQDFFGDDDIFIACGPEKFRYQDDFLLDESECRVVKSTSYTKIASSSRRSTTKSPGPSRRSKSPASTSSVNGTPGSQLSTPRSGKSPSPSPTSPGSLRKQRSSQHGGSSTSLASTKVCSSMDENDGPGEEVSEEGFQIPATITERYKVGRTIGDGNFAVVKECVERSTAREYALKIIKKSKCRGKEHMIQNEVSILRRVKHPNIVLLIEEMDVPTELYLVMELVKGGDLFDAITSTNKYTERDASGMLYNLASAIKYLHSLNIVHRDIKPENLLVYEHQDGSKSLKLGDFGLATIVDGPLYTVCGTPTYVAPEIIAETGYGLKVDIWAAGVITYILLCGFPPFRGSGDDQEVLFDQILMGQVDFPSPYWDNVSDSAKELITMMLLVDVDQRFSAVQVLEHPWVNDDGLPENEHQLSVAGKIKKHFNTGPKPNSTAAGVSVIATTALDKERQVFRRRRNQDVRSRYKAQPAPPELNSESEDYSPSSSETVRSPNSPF

- IC50 (SW1990): 5.19 µM
- IC50 (MiaPaCa-2): 2.01 µM
- IC50 (HT-29): 2.07 µM
- IC50 (DLD-1): 3.22 µM
- IC50 [1]: 0.00261 µM
Compound: COc1cc(C(=O)N2CCC(N3CCN(C)CC3)CC2)ccc1Nc1ncc2c(n1)N(C)c1ccccc1C(=O)N2C [LRRK2-IN-1]

Reference: PMC4030036, “Small molecule kinase inhibitor LRRK2-IN-1 demonstrates potent activity against colorectal and pancreatic cancer through inhibition of doublecortin-like kinase 1” (Molecular Cancer, 2014)
